Data set [1] concerns the target glycine binding site (Rattus norvegicus, UniProt P35439). Put plainly: affinity for the glycine binding site / glycine/NMDA receptor (Ki; method not stated). An excerpt:
(§1) The binding affinities of quinoxaline-2,3-diones at NMDA receptor glycine sites also were estimated by electrophysiological assays with either cloned rat NMDA receptors expressed in Xenopus oocytes, or non-NMDA receptors expressed in oocytes by whole rat brain poly(A)^+ RNA. […] For NMDA receptors Ki values were approximated by averaging values at three subtype combinations (NR1A/NR2A, NR1A/NR2B, and NR1A/NR2C).

In data set [2] the test system is DBA-2 mice. Kind of data set: audiogenic seizure model in DBA-2 mice. It is filed as in vivo. The note with it: Mus musculus, ip, 0.5 h; i.p. injection. An excerpt:
The anticonvulsant activity of the glycine and excitatory amino acid antagonists can be assessed in the audiogenic seizure model in DBA-2 mice as follows. DBA-2 mice can be obtained from Jackson Laboratories, Bar Harbor, Maine. These mice at an age of <27 days develop a tonic seizure within 5-10 seconds and die when they are exposed to a sound of 14 kHz (sinus wave) at 110 dB (Lonsdale, D., Dev. Pharmacol. Ther. 4:28 (1982)). […] 21 day old DBA-2 mice are used for all experiments. Compounds are given intraperitoneally in either saline, DMSO, or polyethyleneglycol-400. Appropriate solvent controls are included in each experiment. Dose response curves are constructed by giving increasing doses of drug from 1 mg/kg to 100 mg/kg. Each dose group (or solvent control) consists of at least six animals.

Data set [3] relates to mice. Kind of data set: anticonvulsant activity in maximum electroshock seizure (MES) experiments in mice. It is filed as in vivo, male Swiss/Webster mice. The settings on record: Mus musculus, ip; Table III; i.p. injection.
Data set [4] concerns neurons. The settings on record: literature, cited from earlier work.
Data set [5] has as its system glycine binding site of the NMDA receptor. The settings on record: literature, cited from earlier work.
Data set [6] concerns non-NMDA glutamate receptors. The note with it: literature, cited from earlier work.
In data set [7] the test system is animals. The settings on record: literature; cited from earlier work.
The conditions of data set [8]: literature, cited from earlier work.
Data set [9] concerns the target PCP receptor. The settings on record: Wong et al. 1986; cited from earlier work.
For data set [10], the system named is dorsal horn nociceptive neurons. The settings on record: literature; cited from earlier work.
Data set [11] deals with NMDA receptor glycine sites. Kind of data set: electrophysiological assay, cloned rat NMDA receptors expressed in Xenopus oocytes. It is filed as cell-based. The note with it: Table II; from electrophysiology using Xenopus oocytes.
From the text: as §1

In data set [12] the test system is mice. Kind of data set: anticonvulsant activity in maximum electroshock seizure (MES) experiments in mice. The class given is in vivo, male Swiss/Webster mice. The procedure:
The seizure stimulus parameters were: 50 mA, 60 Hz, rectangular pulse, width 0.8 msec, duration 200 msec. Tonic hind limb extension observed after application of the electrical stimulus was recorded as occurrence of seizure. The drug was applied i.v. as an aqueous Tris (Tromethamine) solution.

The test system of data set [13] is mice. Put plainly: formalin test for pain in Swiss Webster mice. The note with it: i.p., early and late phases. It is filed as in vivo, male Swiss Webster mice. Here is the method: The effects of the glycine receptor antagonists of the present invention on chronic pain can be evaluated as follows. Male Swiss/Webster mice weighing 25-35 grams are housed five to a cage with free access to food and water and are maintained on a 12 hour light cycle (light onset at 0800h). The glycine receptor antagonist is dissolved in DMSO at a concentration of 140 and 5-40 mg/mL, respectively. DMSO is used as vehicle control. All drugs=are injected intraperitoneally (1 μl/g). […] Mice are observed in a plexiglass cylinder, 25 cm in diameter and 30 cm in height. The plantar surface of one hindpaw is injected subcutaneously with 20 μl of 5% formalin. The degree of pain is determined by measuring the amount of time the animal spends licking the formalin-injected paw during the following time intervals: 0-5' (early phase); 5'-10', 10'-15' and 15'-50' (late phase). To test whether the glycine/excitatory amino acid antagonists prevent chronic pain in the test animals, vehicle (DMSO) or drugs dissolved in vehicle at doses of 1 mg/kg to 40 mg/kg are injected intraperitoneally 30 minutes prior to the formalin injection. For each dose of drug or vehicle control at least six animals are used.
Briefly, after a 60 minute accommodation period in plexiglass jars, mice were weighed and injected intraperitoneally (i.p.) with NDMQX (1-20 mg/kg; N=6-10 mice/dose). Controls were injected with DMSO (1 mL/kg, i.p.). Thirty min later, mice were injected with formalin (20 μl of 5% solution) just under the skin of the right hind paw, transferred to the plexiglass jars, and immediately observed for licking or biting of the injected paw for 1 hr. The amount of time that each mouse spent licking the injected paw was measured at 0-5 min (early phase) and 15-50 min (late phase).
In the formalin test, following a 1 hr accommodation period, mice were injected i.p. with NMCQX (1.00-10.00 mg/kg, N=7-13 mice/dose) or NDMQX (0.5-20.00 mg/kg, N=8-9 mice/dose). Control mice were injected with Tris (0.5 M) or Bis-Tris (0.2 M), respectively. Mice were then injected with formalin. […] The amount of time that each mouse spent licking and/or biting the injected paw was recorded for 1 hr.

Data set [14] deals with mice. Put plainly: MES test with i.p. NMCQX or NDMQX (Example 51). It is filed as in vivo, Swiss Webster mice. The note with it: NMCQX 1.25-7.50 mg/kg, NDMQX 5.00-15.00 mg/kg. Here is the method: In the MES test, mice were injected i.p. with NMCQX (1.25-7.50 mg/kg) or NDMQX (5.00-15.00 mg/kg). Control mice were injected with Tris (0.05 M) or Arginine (0.1 M), respectively. Seizures were then induced by applying a rectangular pulse, 50 mA, 60 pulses/sec, 0.8 msec pulse width, and 0.2 sec train length, at the time of the drugs' peak effect.

For data set [15], the system named is rats. Kind of data set: rat model of permanent focal cerebral ischemia, continuous intravenous infusion. It is filed as in vivo, male Sprague-Dawley rats. Here is the method:
Male Sprague-Dawley rats (290-320 g) were […] and maintained under anesthesia with ±2% of halothane. […] The common carotid arteries (CCA) were isolated, and a loose silk ligature Was placed around each CCA. A vertical skin incision was made between the left orbit and the auditory canal, posterior part of zygoma removed and small opening (2.0/2.5 mm) drilled dorsorostrally to the foramen ovale under constant saline irrigation. The dura was opened with a microsurgical hook and the brain gently retracted with a fine spatula to expose the bifurcation of the internal carotid artery and the middle cerebral artery. The ipsilateral CCA was ligated and the MCA coagulated from its origin to the olfactory tract Two hours after MCA occlusion, the clip from the contralateral CCA was removed.
NDMQX was dissolved in 0.1 M L-arginine and 5% glucose and infused as a slow 10 mg/kg i.v. bolus (immediately after MCA occlusion) followed by 7 mg/kg/h infusion for 22 hours.
Brains were sliced into 2 mm blocks and stained with tetrazolium red (2,3,5-triphenyl tetrazolium chloride). The areas of brain damage were assessed using an image analyzer (Image-1, Universal Imaging Corporation, PA) to determine the volume of cortical and subcortical infarction by integration of areas and the distance between each level.
For the drug administration, the NMCQX was dissolved in 0.05 Tris and 5% glucose. It was infused as a slow 2 mg/kg i.v. bolus (immediately after MCA occlusion) followed by 1.4 mg/kg/h infusion for 22 hours.

The mark [16] stands for this setting: listed as 6,7-dinitroquinoxaline-2,3-dione.
Setting [17] is: listed as 6-cyano-7-nitroquinoxaline-2,3-dione.

pKd, pKi: −log10 of the molar value. “Also recorded” adds a separate entry of the source. Where two headings read alike, the source gives them in different places.

On to `O=c1[nH]c2cc(F)c(F)c(Br)c2[nH]c1=O` [Br F F H], for which the pKi in data set [1] (Table III, read-out: Ki) is 5.64. For the same molecule, in data set [2], the median effective dose (ED50) is 30 mg/kg.

On to `O=c1[nH]c2c(F)c(F)c(F)c(F)c2[nH]c1=O` [F F F F, 5,6,7,8-tetrafluoro-1,4-dihydroquinoxaline-2,3-dione], for which the pKi in data set [1] (Table III, read-out: Ki) is 5.66. In addition, the ED50 was 9 mg/kg in data set [2] and 20 mg/kg in data set [3].

For `O=c1[nH]c2cc([N+](=O)[O-])c([N+](=O)[O-])cc2[nH]c1=O` [6,7-dinitro-1,4-dihydroquinoxaline-2,3-dione], the “neuroprotective efficacy” value is given as “neuroprotective activity” in data set [4] and “neuroprotective in vitro” in [4] (setting [16]). Also, the “glycine site antagonism or affinity (words)” value in [5] is “can antagonize the responses to L-glutamate by interacting with the glycine recognition sites; also recorded: inhibit [^3 H] glycine binding to the strychnine-insensitive glycine binding sites”; in data set [5] (setting [16]) it was “glycine antagonists”. Besides, the “antagonism at kainate / AMPA / non-NMDA receptors” value was “more potent antagonists of kainate than glycine; also recorded: potent non-NMDA glutamate receptor antagonists” in data set [6] and “AMPA” in [6] (setting [16]). Further, the “in vivo activity” value in data set [7] is “antagonize responses mediated by NMDA-associated glycine recognition sites in vivo”. The “penetration of the blood/brain barrier (words)” value in [8] (listed as DNQX) is listed as “poor access to the central nervous system”.

Regarding `N#Cc1cc2nc(O)c(O)nc2cc1[N+](=O)[O-]` [6-cyano-7-nitro-1,4-dihydroquinoxaline-2,3-dione], the “neuroprotective efficacy” value in [4] is reported as “neuroprotective in vitro”. The “glycine site antagonism or affinity (words)” value is “can antagonize the responses to L-glutamate by interacting with the glycine recognition sites; also recorded: inhibit [^3 H] glycine binding to the strychnine-insensitive glycine binding sites; also recorded: antagonizes NMDA receptor-mediated responses by a competitive interaction of the glycine binding site” in data set [5] and “glycine antagonists” in data set [5] (setting [17]). The “antagonism at kainate / AMPA / non-NMDA receptors” value in data set [6] is given as “more potent antagonists of kainate than glycine”; in [6] (setting [17]), “AMPA”; in data set [6] (listed as 7-cyano-6-nitro-1,4-dihydroquinoxaline-2,3-dione) it was “potent non-NMDA glutamate receptor antagonists”. Moreover, the “in vivo activity” value in data set [7] is “antagonize responses mediated by NMDA-associated glycine recognition sites in vivo”. Moreover, the “penetration of the blood/brain barrier (words)” value in data set [8] is “incapable of crossing the blood/brain barrier after i.p. administration”; in data set [8] (listed as CNQX), “poor access to the central nervous system”; in data set [8] (listed as cyano-7-nitro-1,4-dihydroquinoxaline-2,3-dione), “poor access to the central nervous system”.

In the case of `C[C@]12N[C@H](Cc3ccccc31)c1ccccc12` [MK801], the negative logarithm of the Kd (pKd) in [9] was around 8.52. For the same molecule, the “neuroprotective efficacy” value in data set [4] is “have neuroprotective efficacy both in vitro and in vivo”.

Regarding `O=C(O)c1cc(O)c2ccc(Cl)cc2n1` [7-Cl-kynurenic acid], the “glycine site antagonism or affinity (words)” value in data set [5] is on record as “relatively high receptor binding affinity in vitro”. For the same molecule, the “blockade of "wind up"” value in data set [10] is listed as “blocked the "wind up" phenomenon”. In addition, the “penetration of the blood/brain barrier (words)” value in data set [8] was “cannot penetrate the blood/brain barrier”.

For the molecule `Cc1c(Cl)cc2[nH]c(=O)c(=O)[nH]c2c1[N+](=O)[O-]` [NMCQX, 7-Chloro-6-methyl-5-nitro-1,4-dihydroquinoxaline-2,3-dione], the pKi in [11] and in [1] was 8.30 in each case. The “times better than 6,7-dichloro-5-nitro-1,4-dihydroquinoxaline-2,3-dione as anticonvulsant” value in [12] (MES ED50 ratio) is reported as 4-5 times. Moreover, the “ED50 as an anticonvulsant in the MES experiment in mice” value in data set [12] (route not stated) amounted to 1 mg/kg. Besides, the “antinociceptive effect in the formalin test” value in data set [13] is on record as “dose-dependent antinociceptive effect in both phases”. Besides, the “protection from electroshock seizures” value in [14] is “dose-dependently protected mice from generalized clonic-tonic seizures”. For the same molecule, in [15] (2 mg/kg i.v. bolus then 1.4 mg/kg/h for 22 hours, p<0.05), the “reduction in cortical infarct volume” value amounted to 75%. Further, in [15] (rat focal ischemia), the “neuroprotection” value is reported as “significant neuroprotection”.

What is called pKi is the Ki on a negative log10 scale, so that one unit is a factor of ten. What is called ED50 is the dose at which the effect has come halfway, by size or by number of responders. Low readings indicate an effect at a small dose, high ones a need for a large dose. A word on the pKd: it is −log10 of the Kd, conventionally taken in molar units.

The values above are taken from patent US6251903A, “Alkyl, azido, alkoxy, and fluoro-substituted and fused quinoxalinediones and the use thereof as glycine receptor antagonist” (priority 2000, dated 2001).
